System: Unknown protein yeast genes
Test: DNA chip mRNA expression in yeast, unknown protein yeast genes (Table 1)
Type: cell-based, Saccharomyces cerevisiae S288C
Experimental: Yeast (Saccharomyces cerevisiae S288C (α SUC2mal mel gap2 CUP1)) were incubated at 25° C. on YPD medium (yeast extract 1%, polypepton 2%, glucose 2%). One of toxic chemical substances was added to the cells at logarithmic growth phase, and the cells were further incubated for two hours. Cells were cultured without any chemical substance in the same condition, and were used as control. Concentrations of the chemical substances were defined to inhibit the growth of the yeast but not lead to death.
After completion of the incubation, the culture was centrifuged to collect the cells. To the cells, sodium acetate buffer (50 mM sodium acetate, 10 mM EDTA, 1% SDS) was added, and the mixture was shaken at 65° C. for five minutes, followed by returning to room temperature, and obtaining the supernatant, of which the procedures were repeated two times. To the supernatant, ½ amount of a solution of phenol/chloroform was added, and the mixture was centrifuged to give a supernatant, which was added with an equal amount of chloroform, and the mixture was centrifuged to give a supernatant. To the supernatant, an equal amount of isopropanol containing 0.3 M sodium acetate was added, and the mixture was allowed to stand at room temperature for 30 minutes, after which the mixture was centrifuged to give a sediment of the whole RNAs. Seventy % ethanol was added to the sediment, and the mixture was again centrifuged to give a sediment, which was then dried and dissolved in water. mRNA was isolated from the whole RNAs as followings. In view of the fact that a poly A chain is attached to the 3′ terminus of mRNA, a polynucleotide having a poly T structure which was immobilized on the surface of latex beads was used to trap the mRNA, and then the mRNA was washed and eluted with spine column (Oligotex-dT30<Super>mRNA Purification Kit, Takara). Reverse transcription of the mRNA was conducted with a reverse transcriptase (Super Script II Reverse Transcriptase; catalogue No. 18064-014, GibcoBRL) using fluorescence-labeled nucleotides to give cDNAs that were introduced with Cy3-dUTP or Cy5-dUTP during the reverse transcription.
The labeled cDNAs were dissolved in TE buffer (10mM Tris-HCl/1 mM EDTA, pH8.0), and the solution was dropped on the DNA chip containing the whole genes of yeast (DNA Chip Research Inc. Japan) so that the cDNAs were hybridized on the DNA chip at 65° C. for over 12 hours. The fluoresces intensity of the DNA chip was read with a scanner, and the ratio relative to the fluorescence intensity resulting from the absence of chemical substance was estimated as the following, which is shown in Tables 1 to 9: […]

Structure (SMILES): [Cl][Pb][Cl] [(4), PbCl2]
- The level of expressed mRNA in the presence of chemical substance/The level of expressed mRNA in the absence of chemical substance (yeast gene YAL053W, incubated two hours with chemical substance): 2.1
- The level of expressed mRNA in the presence of chemical substance/The level of expressed mRNA in the absence of chemical substance (yeast gene YBL048W): 2.8
- The level of expressed mRNA in the presence of chemical substance/The level of expressed mRNA in the absence of chemical substance (yeast gene YBL107C): 1.5
- The level of expressed mRNA in the presence of chemical substance/The level of expressed mRNA in the absence of chemical substance (yeast gene YDL072C, incubated two hours with chemical substance): 2.1
- The level of expressed mRNA in the presence of chemical substance/The level of expressed mRNA in the absence of chemical substance (yeast gene YDL204W, incubated two hours with chemical substance): 3.4
- The level of expressed mRNA in the presence of chemical substance/The level of expressed mRNA in the absence of chemical substance (yeast gene YDL222C, incubated two hours with chemical substance): 3.9
- The level of expressed mRNA in the presence of chemical substance/The level of expressed mRNA in the absence of chemical substance (yeast gene YDR330W, incubated two hours with chemical substance): 0.8
- The level of expressed mRNA in the presence of chemical substance/The level of expressed mRNA in the absence of chemical substance (yeast gene YDR411C, incubated two hours with chemical substance): 1.2
- The level of expressed mRNA in the presence of chemical substance/The level of expressed mRNA in the absence of chemical substance (yeast gene YDR511W, incubated two hours with chemical substance): 2.3
- The level of expressed mRNA in the presence of chemical substance/The level of expressed mRNA in the absence of chemical substance (yeast gene YDR545W, incubated two hours with chemical substance): 0.7
- The level of expressed mRNA in the presence of chemical substance/The level of expressed mRNA in the absence of chemical substance (yeast gene YEL001C, incubated two hours with chemical substance): 0.7
- The level of expressed mRNA in the presence of chemical substance/The level of expressed mRNA in the absence of chemical substance (yeast gene YER004W, incubated two hours with chemical substance): 1.4
- The level of expressed mRNA in the presence of chemical substance/The level of expressed mRNA in the absence of chemical substance (yeast gene YER035W, incubated two hours with chemical substance): 1.9
- The level of expressed mRNA in the presence of chemical substance/The level of expressed mRNA in the absence of chemical substance (yeast gene YER079W, incubated two hours with chemical substance): 2.0
- The level of expressed mRNA in the presence of chemical substance/The level of expressed mRNA in the absence of chemical substance (yeast gene YER106W, incubated two hours with chemical substance): 1.2
- The level of expressed mRNA in the presence of chemical substance/The level of expressed mRNA in the absence of chemical substance (yeast gene YER158C, incubated two hours with chemical substance): 3.1
- The level of expressed mRNA in the presence of chemical substance/The level of expressed mRNA in the absence of chemical substance (yeast gene YER163C, incubated two hours with chemical substance): 1.6
- The level of expressed mRNA in the presence of chemical substance/The level of expressed mRNA in the absence of chemical substance (yeast gene YER175C, incubated two hours with chemical substance): 2.2
- The level of expressed mRNA in the presence of chemical substance/The level of expressed mRNA in the absence of chemical substance (yeast gene YFL006W, incubated two hours with chemical substance): 1.0
- The level of expressed mRNA in the presence of chemical substance/The level of expressed mRNA in the absence of chemical substance (yeast gene YFL010C, incubated two hours with chemical substance): 1.0
- The level of expressed mRNA in the presence of chemical substance/The level of expressed mRNA in the absence of chemical substance (yeast gene YFL024C): 0.7
- The level of expressed mRNA in the presence of chemical substance/The level of expressed mRNA in the absence of chemical substance (yeast gene YFL032W, incubated two hours with chemical substance): 0.8
- The level of expressed mRNA in the presence of chemical substance/The level of expressed mRNA in the absence of chemical substance (yeast gene YGL037C, incubated two hours with chemical substance): 2.1
- The level of expressed mRNA in the presence of chemical substance/The level of expressed mRNA in the absence of chemical substance (yeast gene YGL047W, incubated two hours with chemical substance): 2.3
- The level of expressed mRNA in the presence of chemical substance/The level of expressed mRNA in the absence of chemical substance (yeast gene YGL053W, incubated two hours with chemical substance): 2.5
- The level of expressed mRNA in the presence of chemical substance/The level of expressed mRNA in the absence of chemical substance (yeast gene YGL121C): 4.2
- The level of expressed mRNA in the presence of chemical substance/The level of expressed mRNA in the absence of chemical substance (yeast gene YGL199C, incubated two hours with chemical substance): 1.0
- The level of expressed mRNA in the presence of chemical substance/The level of expressed mRNA in the absence of chemical substance (yeast gene YGR101W, incubated two hours with chemical substance): 1.1
- The level of expressed mRNA in the presence of chemical substance/The level of expressed mRNA in the absence of chemical substance (yeast gene YGR110W): 5.9
- The level of expressed mRNA in the presence of chemical substance/The level of expressed mRNA in the absence of chemical substance (yeast gene YGR130C, incubated two hours with chemical substance): 1.6
- The level of expressed mRNA in the presence of chemical substance/The level of expressed mRNA in the absence of chemical substance (yeast gene YGR154C, incubated two hours with chemical substance): 0.5
- The level of expressed mRNA in the presence of chemical substance/The level of expressed mRNA in the absence of chemical substance (yeast gene YGR221C, incubated two hours with chemical substance): 1.4
- The level of expressed mRNA in the presence of chemical substance/The level of expressed mRNA in the absence of chemical substance (yeast gene YHR138C, incubated two hours with chemical substance): 2.8
- The level of expressed mRNA in the presence of chemical substance/The level of expressed mRNA in the absence of chemical substance (yeast gene YHR199C, incubated two hours with chemical substance): 2.0
- The level of expressed mRNA in the presence of chemical substance/The level of expressed mRNA in the absence of chemical substance (yeast gene YIL023C, incubated two hours with chemical substance): 1.8
- The level of expressed mRNA in the presence of chemical substance/The level of expressed mRNA in the absence of chemical substance (yeast gene YIL041W, incubated two hours with chemical substance): 1.3
- The level of expressed mRNA in the presence of chemical substance/The level of expressed mRNA in the absence of chemical substance (yeast gene YIL087C, incubated two hours with chemical substance): 1.6
- The level of expressed mRNA in the presence of chemical substance/The level of expressed mRNA in the absence of chemical substance (yeast gene YJL057C, incubated two hours with chemical substance): 1.7
- The level of expressed mRNA in the presence of chemical substance/The level of expressed mRNA in the absence of chemical substance (yeast gene YJL066C, incubated two hours with chemical substance): 2.5
- The level of expressed mRNA in the presence of chemical substance/The level of expressed mRNA in the absence of chemical substance (yeast gene YJL082W, incubated two hours with chemical substance): 1.1
- The level of expressed mRNA in the presence of chemical substance/The level of expressed mRNA in the absence of chemical substance (yeast gene YJL151C, incubated two hours with chemical substance): 1.2
- The level of expressed mRNA in the presence of chemical substance/The level of expressed mRNA in the absence of chemical substance (yeast gene YJL152W, incubated two hours with chemical substance): 1.3
- The level of expressed mRNA in the presence of chemical substance/The level of expressed mRNA in the absence of chemical substance (yeast gene YJL161W, incubated two hours with chemical substance): 4.6
- The level of expressed mRNA in the presence of chemical substance/The level of expressed mRNA in the absence of chemical substance (yeast gene YJL171C, incubated two hours with chemical substance): 1.4
- The level of expressed mRNA in the presence of chemical substance/The level of expressed mRNA in the absence of chemical substance (yeast gene YJR008W, incubated two hours with chemical substance): 1.7
- The level of expressed mRNA in the presence of chemical substance/The level of expressed mRNA in the absence of chemical substance (yeast gene YJR054W, incubated two hours with chemical substance): 0.9
- The level of expressed mRNA in the presence of chemical substance/The level of expressed mRNA in the absence of chemical substance (yeast gene YKL071W): 2.8
- The level of expressed mRNA in the presence of chemical substance/The level of expressed mRNA in the absence of chemical substance (yeast gene YKL086W, incubated two hours with chemical substance): 2.6
- The level of expressed mRNA in the presence of chemical substance/The level of expressed mRNA in the absence of chemical substance (yeast gene YKL151C, incubated two hours with chemical substance): 2.5
- The level of expressed mRNA in the presence of chemical substance/The level of expressed mRNA in the absence of chemical substance (yeast gene YKL153W, incubated two hours with chemical substance): 0.7

Source: patent publication US8192962B2, “Processes for detecting toxic substances” (Daikin Industries, Ltd., priority 2001, dated 2012)
